Among the data in patent US8084466B2, “Bicyclic heteroaryl-substituted imidazoles as modulators of the histamine H4 receptor” (Janssen Pharmaceutica NV, priority 2007, dated 2011) are Ki values, retold here.

This assay deals with T1, human histamine H4 receptor (Homo sapiens, UniProt Q9H3N8).
T1 construct: expressed in transfected cells; host or cells: SK-N-MC cells or COS7 cells, transient transfection with pH4R; cell membranes
Kind of assay: Binding Assay on Recombinant Human Histamine H4 Receptor. The settings on record: competition binding with 3H-histamine (5 nM; KD 5 nM), membranes of SK-N-MC or COS7 cells expressing human H4 receptor; average of results; > = highest value tested. How it is done: Biological Methods: Binding Assay on Recombinant Human Histamine H4 Receptor
SK-N-MC cells or COS7 cells were transiently transfected with pH4R and grown in 150 cm^2 tissue culture dishes. Cells were washed with saline solution, scraped with a cell scraper and collected by centrifugation (1000 rpm, 5 min). Cell membranes were prepared by homogenization of the cell pellet in 20 mM Tris-HCl with a polytron tissue homogenizer for 10 sec at high speed. Homogenate was centrifuged at 1000 rpm for 5 min at 4° C. The supernatant was then collected and centrifuged at 20,000×g for 25 min at 4° C. The final pellet was resuspended in 50 mM Tris-HCl. Cell membranes were incubated with ^3H-histamine (5-70 nM) in the presence or absence of excess histamine (10,000 nM). Incubation occurred at room temperature for […]. Membranes were harvested by rapid filtration over Whatman GF/C filters and washed 4 times with ice-cold 50 mM Tris HCl. Filters were then dried, mixed with scintillant and counted for radioactivity. SK-N-MC or COS7 cells expressing human histamine H4 receptor were used to measure the affinity of binding of other compounds and their ability to displace ^3H-ligand binding by incubating the above-described reaction in the presence of various concentrations of inhibitor or compound to be tested. For competition binding studies using ^3H-histamine, Ki values were calculated, based on an experimentally determined KD value of 5 nM and a ligand concentration of 5 nM, according to Y.-C.

A value given as a limit tells only on which side of the number the result lay.

T1 sequence (Q9H3N8 whole entry): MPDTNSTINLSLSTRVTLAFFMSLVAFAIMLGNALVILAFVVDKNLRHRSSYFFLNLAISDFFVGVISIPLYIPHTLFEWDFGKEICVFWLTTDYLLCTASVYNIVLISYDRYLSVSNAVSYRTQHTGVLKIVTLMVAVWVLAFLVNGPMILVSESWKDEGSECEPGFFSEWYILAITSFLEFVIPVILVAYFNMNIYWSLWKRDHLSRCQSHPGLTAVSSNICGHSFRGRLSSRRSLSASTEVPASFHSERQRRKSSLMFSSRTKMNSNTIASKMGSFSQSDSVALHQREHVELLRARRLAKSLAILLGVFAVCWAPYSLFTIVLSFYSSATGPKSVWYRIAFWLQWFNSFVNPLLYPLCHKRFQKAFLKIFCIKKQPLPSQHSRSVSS

As usually defined, the Ki is a dissociation constant, usually derived from enzyme kinetics or from competition with a known ligand. Turning to `Cc1nc2c(ccc3[nH]c(-c4ccc5c(c4C)CCN5CCCC4CCN(C)CC4)nc32)s1` [Example 60, 2-Methyl-7-{4-methyl-1-[3-(1-methyl-piperidin-4-yl)-propyl]-2,3-dihydro-1H-indol-5-yl}-6H-imidazo[4′,5′:3,4]benzo[2,1-d]thiazole], the Ki stood at 91 nM.
The result for `Cc1cc(C)c2nc(-c3ccc4c(ccn4CCCC4CCN(C)CC4)c3)[nH]c2c1` [Example 61] reads 135 nM.
As to `Cc1ccc2[nH]c(-c3ccc4c(ccn4CCCN4CCNCC4)c3)nc2c1C` [Example 62, 4,5-Dimethyl-2-[1-(3-piperazin-1-yl-propyl)-1H-indol-5-yl]-1H-benzoimidazole], the inhibitory constant (Ki) is 1310 nM.
The result for `CC(C)(C)c1ccc2[nH]c(-c3ccc4c(ccn4CCCN4CCNCC4)c3)nc2c1` [Example 63, 5-tert-Butyl-2-[1-(3-piperazin-1-yl-propyl)-1H-indol-5-yl]-1H-benzoimidazole] reads 1680 nM; that for `Clc1ccc2[nH]c(-c3ccc4c(ccn4CCCN4CCNCC4)c3)nc2c1` [Example 64, 5-Chloro-2-[1-(3-piperazin-1-yl-propyl)-1H-indol-5-yl]-1H-benzoimidazole], 1520 nM; that for `CN1CCN(CCCn2ccc3cc(-c4nc5cc(Cl)ccc5[nH]4)ccc32)CC1` [Example 65, 5-Chloro-2-{1-[3-(4-methyl-piperazin-1-yl)-propyl]-1H-indol-5-yl}-1H-benzoimidazole], 145 nM.
`Cc1cccc2[nH]c(-c3cccc4c3ccn4CCCCC3CCNCC3)nc12` [Example 66, 4-Methyl-2-[1-(4-piperidin-4-yl-butyl)-1H-indol-4-yl]-1H-benzoimidazole]: the Ki is 1180 nM.
The result for `CN1CCC(CCCCn2ccc3c(-c4nc5cc(F)c(F)cc5[nH]4)cccc32)CC1` [Example 67, 5,6-Difluoro-2-{1-[4-(1-methyl-piperidin-4-yl)-butyl]-1H-indol-4-yl}-1H-1 5 benzoimidazole] reads 184 nM.
In the case of `CN1CCC(CCCCn2ccc3c(-c4nc5cc(Cl)ccc5[nH]4)cccc32)CC1` [Example 68, 5-Chloro-2-{1-[4-(1-methyl-piperidin-4-yl)-butyl]-1H-indol-4-yl}-1H-benzoimidazole], the Ki was determined as 343 nM.
As for `CN1CCC(CCCCn2ccc3c(-c4nc5cc(F)ccc5[nH]4)cccc32)CC1` [Example 69, 5-Fluoro-2-{1-[4-(1-methyl-piperidin-4-yl)-butyl]-1H-indol-4-yl}-1H-benzoimidazole], the figure is 325 nM; as for `CN1CCC(CCCCn2ccc3c(-c4nc5c(F)cc(F)cc5[nH]4)cccc32)CC1` [Example 70, 4,6-Difluoro-2-{1-[4-(1-methyl-piperidin-4-yl)-butyl]-1H-indol-4-yl}-1H-benzoimidazole], 102 nM.
For the compound `CN1CCC(CCCCn2ccc3c(-c4nc5ccc6ccccc6c5[nH]4)cccc32)CC1` [Example 71, 2-{1-[4-(1-Methyl-piperidin-4-yl)-butyl]-1H-indol-4-yl}-1H-naphtho[1,2-d]imidazole], the inhibitory constant (Ki) was 802 nM.
For the compound `CN1CCC(CCCCn2cc(Cl)c3c(-c4nc5cccc(C(=O)c6ccccc6)c5[nH]4)cccc32)CC1` [Example 72, (2-{3-Chloro-1-[4-(1-methyl-piperidin-4-yl)-butyl]-1H-indol-4-yl}-3H-benzoimidazol-4-yl)-phenyl-methanone], the Ki was 545 nM.
The result for `Cc1ccc2[nH]c(-c3cccc4c3c(Cl)cn4CCCCC3CCNCC3)nc2c1C` [Example 73, 2-[3-Chloro-1-(4-piperidin-4-yl-butyl)-1H-indol-4-yl]-4,5-dimethyl-1H-benzoimidazole] reads 1710 nM; that for `Cc1ccc2[nH]c(-c3cccc4c3c(Cl)cn4CCCCC3CCN(C)CC3)nc2c1C` [Example 74, 2-{3-Chloro-1-[4-(1-methyl-piperidin-4-yl)-butyl]-1H-indol-4-yl}-4,5-dimethyl-1H-benzoimidazole], 1670 nM.
The result for `CN1CCC(CCCCn2cc(Cl)c3c(-c4nc5c(F)c(F)ccc5[nH]4)cccc32)CC1` [Example 75, 2-{3-Chloro-1-[4-(1-methyl-piperidin-4-yl)-butyl]-1H-indol-4-yl}-4,5-difluoro-1H-benzoimidazole] reads 1000 nM; that for `c1cc(-c2nc3cc4c(cc3[nH]2)OCO4)c2ccn(CCCCC3CCNCC3)c2c1` [Example 76, 6-[1-(4-Piperidin-4-yl-butyl)-1H-indol-4-yl]-5H-[1,3]dioxolo[4′,5′:4,5]-benzo[1,2-d]imidazole], 1940 nM.
As for `O=C(c1ccccc1)c1ccc2[nH]c(-c3cccc4c3ccn4CCCCC3CCNCC3)nc2c1` [Example 77, Phenyl-{2-[1-(4-piperidin-4-yl-butyl)-1H-indol-4-yl]-1H-benzoimidazol-5-yl}-methanone], the Ki came out at 1670 nM.
The result for `Cc1ccc2[nH]c(-c3cccc4c3ccn4CCCCC3CCN(C)CC3)nc2c1C` [Example 78, 4,5-Dimethyl-2-{1-[4-(1-methyl-piperidin-4-yl)-butyl]-1H-indol-4-yl}-1H-benzoimidazole] reads 154 nM; that for `Cc1[nH]c(-c2ccc3c(ccn3CCCN3CCN(C)CC3)c2)nc1-c1cccc(C(F)(F)F)c1` [Example 79, 1-[3-(4-Methyl-piperazin-1-yl)-propyl]-5-[5-methyl-4-(3-trifluoromethyl-phenyl)-1H-imidazol-2-yl]-1H-indole], 228 nM; that for `Cc1[nH]c(-c2ccc3c(ccn3CCCN3CCN(C)CC3)c2)nc1-c1ccc(Cl)cc1` [Example 80, 5-[4-(4-Chloro-phenyl)-5-methyl-1H-imidazol-2-yl]-1-[3-(4-methyl-piperazin-1-yl)-propyl]-1H-indole], 1980 nM.
As for `CCCc1[nH]c(-c2ccc3c(ncn3CCCC3CCN(C)CC3)c2C)nc1C` [Example 81, 4-Methyl-1-[3-(1-methyl-piperidin-4-yl)-propyl]-5-(4-methyl-5-propyl-1H-imidazol-2-yl)-1H-benzoimidazole], the figure is 953 nM.
Take `Cc1nc(-c2ccc3c(ncn3CCCC3CCN(C)CC3)c2C)[nH]c1-c1ccc(C(F)(F)F)cc1` [Example 82, 4-Methyl-1-[3-(1-methyl-piperidin-4-yl)-propyl]-5-[4-methyl-5-(4-trifluoromethyl-phenyl)-1H-imidazol-2-yl]-1H-benzoimidazole]: the Ki was 0.3 nM.
`Cc1nc(-c2ccc3c(ncn3CCCC3CCN(C)CC3)c2C)[nH]c1-c1cc(Cl)cc(Cl)c1` [Example 83, 5-[5-(3,5-Dichloro-phenyl)-4-methyl-1H-imidazol-2-yl]-4-methyl-1-[3-(1-methyl-piperidin-4-yl)-propyl]-1H-benzoimidazole]: the Ki is 0.3 nM.
The result for `Cc1c(-c2nc(C(F)(F)F)c(-c3ccccc3)[nH]2)ccc2c1ncn2CCCC1CCN(C)CC1` [Example 84, 4-Methyl-1-[3-(1-methyl-piperidin-4-yl)-propyl]-5-(5-phenyl-4-trifluoromethyl-1H-imidazol-2-yl)-1H-benzoimidazole] reads 8 nM; that for `Cc1ccc(-c2nc(-c3ccc4c(ncn4CCCC4CCN(C)CC4)c3C)[nH]c2-c2ccc(Cl)cc2)cc1` [Example 85], 5 nM; that for `Cc1c(F)ccc2[nH]c(-c3ccc4c(c3)c(CN(C)C)cn4CCCC3CCN(C)CC3)nc12` [Example 86, {5-(5-Fluoro-4-methyl-1H-benzoimidazol-2-yl)-1-[3-(1-methyl-piperidin-4-yl)-propyl]-1H-indol-3-ylmethyl}-dimethyl-amine], > 10000 nM.
The result for `Cc1c(F)ccc2[nH]c(-c3ccc4c(c3)c(Cl)cn4CCCC3CCNCC3)nc12` [Example 87, 2-[3-Chloro-1-(3-piperidin-4-yl-propyl)-1H-indol-5-yl]-5-fluoro-4-methyl-1H-benzoimidazole] reads 1830 nM.
The result for `Cc1c(F)ccc2[nH]c(-c3ccc4c(c3)c(Cl)cn4CCCC3CCN(C)CC3)nc12` [Example 88, 2-{3-Chloro-1-[3-(1-methyl-piperidin-4-yl)-propyl]-1H-indol-5-yl}-5-fluoro-4-methyl-1H-benzoimidazole] reads > 10000 nM.
As for `Cc1cc(C)c2nc(-c3ccc4c(c3)c(C)c(C)n4CCCC3CCNCC3)[nH]c2c1` [Example 89, 2-[2,3-Dimethyl-1-(3-piperidin-4-yl-propyl)-1H-indol-5-yl]-4,6-dimethyl-1H-benzoimidazole], the inhibitory constant (Ki) was found to be 2000 nM.
With `Cc1c(C)n(CCCC2CCNCC2)c2ccc(-c3nc4c(C)c(F)ccc4[nH]3)cc12` [Example 90, 2-[2,3-Dimethyl-1-(3-piperidin-4-yl-propyl)-1H-indol-5-yl]-5-fluoro-4-methyl-1H-benzoimidazole], the Ki turned out to be 2000 nM.
As for `Cc1c(F)ccc2[nH]c(-c3cnc4c(ccn4CCCC4CCNCC4)c3)nc12` [Example 91, 5-Fluoro-4-methyl-2-[1-(3-piperidin-4-yl-propyl)-1H-pyrrolo[2,3-b]pyridin-5-yl]-1H-benzoimidazole], the figure is 762 nM; as for `CN1CCC(CCCn2ccc3cc(-c4nc5cc(C(C)(C)C)ccc5[nH]4)cnc32)CC1` [Example 92], 353 nM.
